In experiment [1] the target is T1, His-His-USP7 (aa208-560, |C315A|) (Homo sapiens, UniProt Q93009, C315A).
T1 construct: His-His-USP7 (aa208-560, |C315A|); His-His (N)
In words: Evaluation of the inhibition of USP7 by the Fluorescence Intensity (FLINT) readings. The settings on record: 0.25 nM His-His-USP7, compound incubated 60 minutes at 30° C., 500 nM Ubiquitin-Rhodamine-110 substrate; 50% reduction in kinetic rate. The class given is biochemical. The method in brief: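 0.25 nM His-His-USP7 (aa208–560, C315A) preincubated 60 min at 30 °C with compound in 100 mM Bicine pH 8.0, 0.01% Triton X-100, 1 mM TCEP, 10% DMSO. Reaction started with 500 nM ubiquitin-rhodamine-110 and fluorescence (Ex485/Em535) read every 3 min for 21 min. IC50 derived from kinetic-rate reduction over an 11-point curve, 4-parameter fit.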

Experiment [2] concerns Z138 mantle cell lymphoma tumour cell lines. In words: In vitro cytotoxicity, MTT assay. In kind it is cell-based. Particulars: Homo sapiens, Z-138, 96 h, Z138 cells exposed to the test compounds for 96 hours; cell viability vs DMSO treated cells. The method in brief: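 Z138 cells exposed to compounds for 96 hours, then MTT added for 4 hours. Viable cells quantified from formazan absorbance at 540 nm.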

T1 sequence (Q93009 208-560 C315A): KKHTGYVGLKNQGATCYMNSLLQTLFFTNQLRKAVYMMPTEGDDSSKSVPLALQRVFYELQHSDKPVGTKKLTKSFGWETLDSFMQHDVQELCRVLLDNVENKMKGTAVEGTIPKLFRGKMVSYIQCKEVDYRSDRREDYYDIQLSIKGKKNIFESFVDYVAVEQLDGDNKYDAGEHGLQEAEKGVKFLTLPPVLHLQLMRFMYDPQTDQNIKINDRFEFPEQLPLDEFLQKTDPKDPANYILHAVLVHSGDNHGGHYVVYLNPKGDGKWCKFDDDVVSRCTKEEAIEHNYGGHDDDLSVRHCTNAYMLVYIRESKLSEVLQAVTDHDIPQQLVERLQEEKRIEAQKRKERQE

`Nc1c(Oc2ccc(F)cc2)ncn(CC2(O)CCN(C(=O)[C@@H]3CC[C@](F)(C#Cc4cccnn4)C[C@H]3c3ccccc3)CC2)c1=O` [Example 145, 5-amino-3-[(1-{[(1R,2R,4R)-4-fluoro-2-phenyl-4-[2-(pyridazin-3-yl)ethynyl]cyclohexyl]carbonyl}-4-hydroxypiperidin-4-yl)methyl]-6-(4-fluorophenoxy)pyrimidin-4-one]: the IC50 – broadly, the concentration that gives 50% inhibition – was determined as 8.66 nM in experiment [1] and 0.00231 µM in experiment [2].

On to `Nc1cc(Oc2ncn(CC3(O)CCN(C(=O)[C@@H]4CCC(F)(F)C[C@H]4c4ccccc4)CC3)c(=O)c2N)ccc1F` [Example 119, 5-amino-6-(3-amino-4-fluorophenoxy)-3-({1-[(1R,2R)-4,4-difluoro-2-phenylcyclohexane-1-carbonyl]-4-hydroxypiperidin-4-yl}methyl)pyrimidin-4(3H)-one], for which the IC50 in experiment [1] was determined as 38 nM; in experiment [2] it was 0.0613 µM.

Turning to `C#C[C@@]1(F)CC[C@@H](C(=O)N2CCC(O)(Cn3cnc(Oc4ccc(F)cc4)c(N)c3=O)CC2)[C@H](c2ccccc2)C1` [Example 123, 5-amino-3-({1-[(1R,2R,4R)-4-ethynyl-4-fluoro-2-phenylcyclohexanecarbonyl]-4-hydroxypiperidin-4-yl}methyl)-6-(4-fluorophenoxy)-3,4-dihydropyrimidin-4-one], the values for the IC50 in experiment [1] and in experiment [2] were 35.4 nM and 0.0466 µM, respectively.

For the origin of these results see patent US20210221785A1, “AMINO-PYRIMIDONYL DERIVATIVES, A PROCESS FOR THEIR PREPARATION AND PHARMACEUTICAL COMPOSITIONS CONTAINING THEM” (LES LABORATOIRES SERVIER, priority 2018, published 2021).
